Source: PubChem BioAssay (NCI)
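Cells were grown in 96-well plates and exposed to each compound for 48 hours at five concentrations; endpoints were interpolated linearly between bracketing concentrations, or set to the highest concentration if not reached. The concentration for full growth arrest is given as TGI.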

Legend:
Assay in all cases: NCI tumour cell line growth inhibition, 48 h
HCT-15 colon = system: HCT-15 colon
K-562 leukemia = system: K-562 leukemia
M14 melanoma = system: M14 melanoma
MDA-MB-231 breast = system: MDA-MB-231 breast
MDA-MB-435 = system: MDA-MB-435
NCI-H23 lung = system: NCI-H23 lung
OVCAR-4 ovarian = system: OVCAR-4 ovarian
RPMI-8226 leukemia = system: RPMI-8226 leukemia
SK-MEL-2 melanoma = system: SK-MEL-2 melanoma
SK-MEL-28 melanoma = system: SK-MEL-28 melanoma
SN12C renal = system: SN12C renal
TK-10 renal = system: TK-10 renal
HL-60(TB) leukemia = system: HL-60(TB) leukemia
SNB-75 CNS = system: SNB-75 CNS

SMILES | TGI (HCT-15 colon) | TGI (K-562 leukemia) | TGI (M14 melanoma) | TGI (MDA-MB-231 breast) | TGI (MDA-MB-435) | TGI (NCI-H23 lung) | TGI (OVCAR-4 ovarian) | TGI (RPMI-8226 leukemia) | TGI (SK-MEL-2 melanoma) | TGI (SK-MEL-28 melanoma) | TGI (SN12C renal) | TGI (TK-10 renal) | TGI (HL-60(TB) leukemia) | TGI (SNB-75 CNS)
Cc1n[nH]c(=O)n1N=C(c1ccccc1)c1ccccc1 | > 100 µM | > 100 µM | > 100 µM | > 100 µM | > 100 µM | > 100 µM | > 100 µM | > 100 µM | > 100 µM | > 100 µM | > 100 µM | > 100 µM | – | –
C=C1C(=O)OC2/C=C(\C)C(O)/C=C\C(C)(O)CC(OC(=O)/C(C)=C/C)C12 (stereo not drawn) | 33.8 µM | > 84.6 µM | 32.7 µM | – | – | > 100 µM | > 100 µM | > 68.6 µM | 48.8 µM | 35.4 µM | 53.5 µM | > 100 µM | > 64 µM | > 100 µM
COc1ccc(C)cc1NC(=S)N/N=C/c1ccc(SC)cc1 | > 100 µM | > 100 µM | 73.9 µM | – | > 100 µM | > 100 µM | > 100 µM | 76.3 µM | > 100 µM | > 100 µM | > 100 µM | – | > 100 µM | > 100 µM
Cc1nc(-c2nc([N+](=O)[O-])c([N+](=O)[O-])[nH]2)cs1 | – | > 100 µM | > 100 µM | – | – | > 100 µM | > 100 µM | > 100 µM | > 100 µM | > 100 µM | > 100 µM | > 100 µM | > 100 µM | > 100 µM
N#Cc1c(C#N)c(SSc2c(C#N)c(C#N)c(N)n2-c2ccccc2)n(-c2ccccc2)c1N | > 24.4 µM | > 100 µM | – | > 69.6 µM | 29.2 µM | > 61 µM | – | – | 47.7 µM | 40.9 µM | 38.3 µM | 3.29 µM | – | > 70 µM
C=C(Cl)C(Cl)(CBr)CCC(Cl)C(C)(C)Cl (stereo not drawn) | 14.7 µM | 29.3 µM | 35.6 µM | 5.83 µM | 8.21 µM | 34.3 µM | 3.88 µM | 0.872 µM | 1.84 µM | 3.8 µM | 22.5 µM | 2.71 µM | – | 1.77 µM
COC(=O)C1=C(O)C(C(=O)OC)[C@]2(O)[C@H](C(=O)OC)[C@H]1C[C@@H](c1ccc(OC)cc1)[C@H]2C(=O)OC (stereo partly drawn) | > 100 µM | > 100 µM | 66.6 µM | 75.3 µM | 29 µM | > 100 µM | 78.2 µM | 57.4 µM | 56.3 µM | > 100 µM | 53.9 µM | > 100 µM | – | 91.8 µM
CC1(C)CCc2c(c(N=Nc3ccccc3)c3ccccc3c2O)O1 | > 100 µM | > 100 µM | 88.8 µM | 67 µM | 83.5 µM | > 100 µM | > 100 µM | > 100 µM | 34.5 µM | > 100 µM | 40.1 µM | 46.1 µM | > 100 µM | –
Cc1ccc(/C=N/Nc2ncccn2)s1 | > 100 µM | – | > 100 µM | > 100 µM | > 100 µM | > 100 µM | > 100 µM | > 100 µM | > 100 µM | > 100 µM | > 100 µM | > 100 µM | – | > 100 µM
